Laboratory results taken from ChEMBL document CHEMBL1157577.

Target: T1, Progesterone receptor (Homo sapiens) (UniProt P06401)
T1 sequence (whole entry): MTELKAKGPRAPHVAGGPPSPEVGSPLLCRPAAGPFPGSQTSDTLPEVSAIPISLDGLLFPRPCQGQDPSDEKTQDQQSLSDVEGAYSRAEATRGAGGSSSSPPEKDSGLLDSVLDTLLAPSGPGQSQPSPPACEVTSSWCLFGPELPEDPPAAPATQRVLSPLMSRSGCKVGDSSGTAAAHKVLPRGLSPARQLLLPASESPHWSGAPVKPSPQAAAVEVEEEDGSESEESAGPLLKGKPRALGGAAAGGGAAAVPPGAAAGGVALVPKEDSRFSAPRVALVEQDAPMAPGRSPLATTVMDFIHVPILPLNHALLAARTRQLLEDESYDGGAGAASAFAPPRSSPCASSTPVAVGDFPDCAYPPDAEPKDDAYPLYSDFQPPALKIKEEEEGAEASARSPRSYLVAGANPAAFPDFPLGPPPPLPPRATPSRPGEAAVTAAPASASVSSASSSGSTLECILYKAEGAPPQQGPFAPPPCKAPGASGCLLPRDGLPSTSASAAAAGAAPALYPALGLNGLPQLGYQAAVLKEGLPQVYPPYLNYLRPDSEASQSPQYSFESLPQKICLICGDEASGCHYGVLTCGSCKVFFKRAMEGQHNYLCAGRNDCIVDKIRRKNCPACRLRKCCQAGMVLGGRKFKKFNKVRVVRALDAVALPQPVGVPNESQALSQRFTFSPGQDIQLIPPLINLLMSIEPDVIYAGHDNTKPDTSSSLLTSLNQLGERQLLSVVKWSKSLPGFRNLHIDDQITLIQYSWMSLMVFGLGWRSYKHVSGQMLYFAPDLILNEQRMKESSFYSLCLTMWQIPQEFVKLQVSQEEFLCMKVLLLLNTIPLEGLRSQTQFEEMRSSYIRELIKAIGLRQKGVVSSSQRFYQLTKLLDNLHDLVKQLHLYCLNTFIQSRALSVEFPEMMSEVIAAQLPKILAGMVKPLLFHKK
Assay: Antiprogestagenic activity at progesterone receptor in human T47D cells assessed as inhibition of progesterone-induced alkaline phosphatase activity relative to mifepristone
Assay type: cell-based
Parameters: scale not given: the % may be the effect or the level left

Activity [%]	Compound
0.11	CC#C[C@]1(O)CC[C@H]2[C@@H]3CCC4=CC(=O)CCC4=C3[C@@H](c3ccc(N(C)CCCCCC(=O)O)cc3)C[C@@]21C
0.15	CC#C[C@]1(O)CC[C@H]2[C@@H]3CCC4=CC(=O)CCC4=C3[C@@H](c3ccc(N(C)CCC(=O)O)cc3)C[C@@]21C
